From PubChem BioAssay (NCI)
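48-hour exposure; five concentrations; linearly interpolated endpoints. Here, GI50 denotes the concentration required for 50% inhibition of growth. TGI: total growth inhibition.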

These compounds were tested on HOP-92 NSCLC (assay: DTP human tumour cell line panel, 48 h).
In the case of `COc1cc(C2C3C=CC=C4CC=CC(=C43)C3CCC(=O)N32)cc(OC)c1OC` (stereo not given), the TGI is reported as over 100 µM.

These compounds were tested on HS 578T breast (assay: DTP human tumour cell line panel, 48 h).
`CC1=C(C(=O)Nc2ccc(F)c(Cl)c2)C(c2ccccc2O)NC(=S)N1` (stereo not given) gave a GI50 of 35 µM and a TGI of over 50 µM. For `c1ccc(N=C(N2CCCC2)N(CCN2CCCC2)c2ccccc2)cc1`, the TGI was over 100 µM. `Cc1cc(C)c2c(n1)sc1c(Nc3ccc(Cl)cc3)ncnc12` gave a GI50 of over 100 µM and a TGI of over 100 µM. `COc1cc(/C=C/C(=O)c2ccc(O)c(OC)c2)ccc1O` showed a TGI of 60.3 µM. Compound `Cc1ccc(-c2c(C#N)c(-c3ccc(C)cc3)n(NS(=O)(=O)c3ccccc3)c(=O)c2C#N)cc1` has a TGI of over 100 µM. `C[n+]1c2ccc(Cl)cc2nc2cc(-c3ccccc3)ccc21` showed a TGI of 65 µM.

These compounds were tested on HT29 colon (assay: DTP human tumour cell line panel, 48 h).
`c1ccc(N=C(N2CCCC2)N(CCN2CCCC2)c2ccccc2)cc1` was tested, and the TGI was 14.8 µM. Compound `Cc1cc(C)c2c(n1)sc1c(Nc3ccc(Cl)cc3)ncnc12` has a GI50 of under 15.2 nM and a TGI of over 100 µM. With `Cc1ccc(-c2c(C#N)c(-c3ccc(C)cc3)n(NS(=O)(=O)c3ccccc3)c(=O)c2C#N)cc1` the TGI was over 100 µM. For `C[n+]1c2ccc(Cl)cc2nc2cc(-c3ccccc3)ccc21`, the TGI was over 100 µM. `COc1cc(C2C3C=CC=C4CC=CC(=C43)C3CCC(=O)N32)cc(OC)c1OC` (stereo not given) showed a TGI of over 100 µM.

These compounds were tested on IGROV1 ovarian (assay: DTP human tumour cell line panel, 48 h).
In the case of `CC1=C(C(=O)Nc2ccc(F)c(Cl)c2)C(c2ccccc2O)NC(=S)N1` (stereo not given), the GI50 is reported as over 50 µM and the TGI is reported as over 50 µM. Work on `c1ccc(N=C(N2CCCC2)N(CCN2CCCC2)c2ccccc2)cc1` yielded a TGI of over 100 µM. `Cc1cc(C)c2c(n1)sc1c(Nc3ccc(Cl)cc3)ncnc12` showed a GI50 of over 100 µM and a TGI of over 100 µM. For `Cc1ccc(-c2c(C#N)c(-c3ccc(C)cc3)n(NS(=O)(=O)c3ccccc3)c(=O)c2C#N)cc1`, the TGI was over 100 µM. For `C[n+]1c2ccc(Cl)cc2nc2cc(-c3ccccc3)ccc21`, the TGI was 35.4 µM. `COc1cc(C2C3C=CC=C4CC=CC(=C43)C3CCC(=O)N32)cc(OC)c1OC` (stereo not given) gave a TGI of over 100 µM.

Each compound was assayed on K-562 leukemia (assay: DTP human tumour cell line panel, 48 h).
For `CC1=C(C(=O)Nc2ccc(F)c(Cl)c2)C(c2ccccc2O)NC(=S)N1` (stereo not given), the GI50 was 22 µM and the TGI was over 50 µM. With `c1ccc(N=C(N2CCCC2)N(CCN2CCCC2)c2ccccc2)cc1` the TGI was over 100 µM. With `Cc1cc(C)c2c(n1)sc1c(Nc3ccc(Cl)cc3)ncnc12` the GI50 was 0.0154 µM and the TGI was over 100 µM. `Cc1ccc(-c2c(C#N)c(-c3ccc(C)cc3)n(NS(=O)(=O)c3ccccc3)c(=O)c2C#N)cc1` gave a TGI of over 100 µM. `C[n+]1c2ccc(Cl)cc2nc2cc(-c3ccccc3)ccc21` gave a TGI of 66.8 µM. `COc1cc(C2C3C=CC=C4CC=CC(=C43)C3CCC(=O)N32)cc(OC)c1OC` (stereo not given) was tested, and the TGI was over 100 µM.

Each compound was assayed on KM12 colon (assay: DTP human tumour cell line panel, 48 h).
Compound `CC1=C(C(=O)Nc2ccc(F)c(Cl)c2)C(c2ccccc2O)NC(=S)N1` (stereo not given) has a GI50 of over 50000 nM and a TGI of over 50 µM. `c1ccc(N=C(N2CCCC2)N(CCN2CCCC2)c2ccccc2)cc1` was tested, and the TGI was 41.7 µM. `Cc1cc(C)c2c(n1)sc1c(Nc3ccc(Cl)cc3)ncnc12` gave a GI50 of 139 nM and a TGI of over 100 µM. Compound `Cc1ccc(-c2c(C#N)c(-c3ccc(C)cc3)n(NS(=O)(=O)c3ccccc3)c(=O)c2C#N)cc1` has a TGI of over 100 µM. `C[n+]1c2ccc(Cl)cc2nc2cc(-c3ccccc3)ccc21` was tested, and the TGI was 33.7 µM. Compound `COc1cc(C2C3C=CC=C4CC=CC(=C43)C3CCC(=O)N32)cc(OC)c1OC` (stereo not given) has a TGI of over 100 µM.

What follows are compounds tested on LOX IMVI melanoma (assay: DTP human tumour cell line panel, 48 h).
In the case of `CC1=C(C(=O)Nc2ccc(F)c(Cl)c2)C(c2ccccc2O)NC(=S)N1` (stereo not given), the GI50 is reported as 23.6 µM and the TGI is reported as over 50 µM. With `c1ccc(N=C(N2CCCC2)N(CCN2CCCC2)c2ccccc2)cc1` the TGI was over 100 µM. In the case of `Cc1cc(C)c2c(n1)sc1c(Nc3ccc(Cl)cc3)ncnc12`, the GI50 is reported as under 0.01 µM and the TGI is reported as over 100 µM. In the case of `Cc1ccc(-c2c(C#N)c(-c3ccc(C)cc3)n(NS(=O)(=O)c3ccccc3)c(=O)c2C#N)cc1`, the TGI is reported as over 100 µM. With `C[n+]1c2ccc(Cl)cc2nc2cc(-c3ccccc3)ccc21` the TGI was over 100 µM. Compound `COc1cc(C2C3C=CC=C4CC=CC(=C43)C3CCC(=O)N32)cc(OC)c1OC` (stereo not given) has a TGI of over 100 µM.

Each compound was assayed on M14 melanoma (assay: DTP human tumour cell line panel, 48 h).
`CC1=C(C(=O)Nc2ccc(F)c(Cl)c2)C(c2ccccc2O)NC(=S)N1` (stereo not given) showed a GI50 of over 50 µM and a TGI of over 50 µM. With `c1ccc(N=C(N2CCCC2)N(CCN2CCCC2)c2ccccc2)cc1` the TGI was 27 µM. `Cc1cc(C)c2c(n1)sc1c(Nc3ccc(Cl)cc3)ncnc12` was tested, and the GI50 was under 0.01 µM. `Cc1ccc(-c2c(C#N)c(-c3ccc(C)cc3)n(NS(=O)(=O)c3ccccc3)c(=O)c2C#N)cc1` showed a TGI of over 100 µM. `C[n+]1c2ccc(Cl)cc2nc2cc(-c3ccccc3)ccc21` gave a TGI of 27.7 µM. `COc1cc(C2C3C=CC=C4CC=CC(=C43)C3CCC(=O)N32)cc(OC)c1OC` (stereo not given) was tested, and the TGI was over 100 µM.

These compounds were tested on MALME-3M melanoma (assay: DTP human tumour cell line panel, 48 h).
In the case of `c1ccc(N=C(N2CCCC2)N(CCN2CCCC2)c2ccccc2)cc1`, the TGI is reported as over 100 µM. For `Cc1cc(C)c2c(n1)sc1c(Nc3ccc(Cl)cc3)ncnc12`, the GI50 was 19.3 µM and the TGI was over 100 µM. Work on `COc1cc(/C=C/C(=O)c2ccc(O)c(OC)c2)ccc1O` yielded a TGI of 51.4 µM. For `Cc1ccc(-c2c(C#N)c(-c3ccc(C)cc3)n(NS(=O)(=O)c3ccccc3)c(=O)c2C#N)cc1`, the TGI was over 100 µM. In the case of `C[n+]1c2ccc(Cl)cc2nc2cc(-c3ccccc3)ccc21`, the TGI is reported as 40.4 µM.

What follows are compounds tested on MCF7 breast (assay: DTP human tumour cell line panel, 48 h).
`c1ccc(N=C(N2CCCC2)N(CCN2CCCC2)c2ccccc2)cc1` gave a TGI of over 100 µM. `Cc1cc(C)c2c(n1)sc1c(Nc3ccc(Cl)cc3)ncnc12` showed a GI50 of under 10 nM and a TGI of over 100 µM. For `Cc1ccc(-c2c(C#N)c(-c3ccc(C)cc3)n(NS(=O)(=O)c3ccccc3)c(=O)c2C#N)cc1`, the TGI was over 100 µM. Work on `C[n+]1c2ccc(Cl)cc2nc2cc(-c3ccccc3)ccc21` yielded a TGI of 4.52 µM. `COc1cc(C2C3C=CC=C4CC=CC(=C43)C3CCC(=O)N32)cc(OC)c1OC` (stereo not given) gave a TGI of over 100 µM.

The compounds below were run on MDA-MB-231 breast (assay: DTP human tumour cell line panel, 48 h).
Compound `CC1=C(C(=O)Nc2ccc(F)c(Cl)c2)C(c2ccccc2O)NC(=S)N1` (stereo not given) has a GI50 of over 50 µM and a TGI of over 50 µM. Work on `COc1cc(/C=C/C(=O)c2ccc(O)c(OC)c2)ccc1O` yielded a TGI of 79.4 µM. For `Cc1ccc(-c2c(C#N)c(-c3ccc(C)cc3)n(NS(=O)(=O)c3ccccc3)c(=O)c2C#N)cc1`, the TGI was over 100 µM. In the case of `C[n+]1c2ccc(Cl)cc2nc2cc(-c3ccccc3)ccc21`, the TGI is reported as 44 µM. `COc1cc(C2C3C=CC=C4CC=CC(=C43)C3CCC(=O)N32)cc(OC)c1OC` (stereo not given) gave a TGI of over 100 µM.

The compounds below were run on MDA-MB-435 (assay: DTP human tumour cell line panel, 48 h).
`CC1=C(C(=O)Nc2ccc(F)c(Cl)c2)C(c2ccccc2O)NC(=S)N1` (stereo not given) was tested, and the GI50 was 32.2 µM and the TGI was over 50 µM. `c1ccc(N=C(N2CCCC2)N(CCN2CCCC2)c2ccccc2)cc1` showed a TGI of over 100 µM. With `Cc1cc(C)c2c(n1)sc1c(Nc3ccc(Cl)cc3)ncnc12` the GI50 was under 0.01 µM and the TGI was over 100 µM. `Cc1ccc(-c2c(C#N)c(-c3ccc(C)cc3)n(NS(=O)(=O)c3ccccc3)c(=O)c2C#N)cc1` gave a TGI of over 100 µM. In the case of `COc1cc(C2C3C=CC=C4CC=CC(=C43)C3CCC(=O)N32)cc(OC)c1OC` (stereo not given), the TGI is reported as over 100 µM.

These compounds were tested on MOLT-4 leukemia (assay: DTP human tumour cell line panel, 48 h).
`CC1=C(C(=O)Nc2ccc(F)c(Cl)c2)C(c2ccccc2O)NC(=S)N1` (stereo not given) showed a GI50 of 17.8 µM and a TGI of over 50 µM. In the case of `c1ccc(N=C(N2CCCC2)N(CCN2CCCC2)c2ccccc2)cc1`, the TGI is reported as over 100 µM. In the case of `Cc1cc(C)c2c(n1)sc1c(Nc3ccc(Cl)cc3)ncnc12`, the GI50 is reported as under 0.01 µM and the TGI is reported as over 100 µM. In the case of `Cc1ccc(-c2c(C#N)c(-c3ccc(C)cc3)n(NS(=O)(=O)c3ccccc3)c(=O)c2C#N)cc1`, the TGI is reported as 64.7 µM. For `C[n+]1c2ccc(Cl)cc2nc2cc(-c3ccccc3)ccc21`, the TGI was 5.19 µM. Compound `COc1cc(C2C3C=CC=C4CC=CC(=C43)C3CCC(=O)N32)cc(OC)c1OC` (stereo not given) has a TGI of over 100 µM.

The compounds below were run on NCI-H226 lung (assay: DTP human tumour cell line panel, 48 h).
Work on `CC1=C(C(=O)Nc2ccc(F)c(Cl)c2)C(c2ccccc2O)NC(=S)N1` (stereo not given) yielded a GI50 of over 50000 nM and a TGI of over 50 µM. Work on `c1ccc(N=C(N2CCCC2)N(CCN2CCCC2)c2ccccc2)cc1` yielded a TGI of over 100 µM. `Cc1cc(C)c2c(n1)sc1c(Nc3ccc(Cl)cc3)ncnc12` showed a GI50 of 33.3 nM and a TGI of 5.67 µM. With `COc1cc(/C=C/C(=O)c2ccc(O)c(OC)c2)ccc1O` the TGI was 46.3 µM. Compound `Cc1ccc(-c2c(C#N)c(-c3ccc(C)cc3)n(NS(=O)(=O)c3ccccc3)c(=O)c2C#N)cc1` has a TGI of over 100 µM. In the case of `C[n+]1c2ccc(Cl)cc2nc2cc(-c3ccccc3)ccc21`, the TGI is reported as 44.2 µM. With `COc1cc(C2C3C=CC=C4CC=CC(=C43)C3CCC(=O)N32)cc(OC)c1OC` (stereo not given) the TGI was 36.3 µM.

What follows are compounds tested on NCI-H23 lung (assay: DTP human tumour cell line panel, 48 h).
In the case of `c1ccc(N=C(N2CCCC2)N(CCN2CCCC2)c2ccccc2)cc1`, the TGI is reported as over 100 µM. `Cc1cc(C)c2c(n1)sc1c(Nc3ccc(Cl)cc3)ncnc12` showed a GI50 of under 10 nM and a TGI of over 100 µM. `C[n+]1c2ccc(Cl)cc2nc2cc(-c3ccccc3)ccc21` was tested, and the TGI was 23.2 µM.

These compounds were tested on NCI-H460 lung (assay: DTP human tumour cell line panel, 48 h).
`CC1=C(C(=O)Nc2ccc(F)c(Cl)c2)C(c2ccccc2O)NC(=S)N1` (stereo not given) showed a GI50 of 21.4 µM and a TGI of over 50 µM. `c1ccc(N=C(N2CCCC2)N(CCN2CCCC2)c2ccccc2)cc1` was tested, and the TGI was 75.8 µM. `Cc1cc(C)c2c(n1)sc1c(Nc3ccc(Cl)cc3)ncnc12` showed a GI50 of under 0.01 µM and a TGI of over 100 µM.
